In ChEMBL document CHEMBL2073749, “Rat organic anion transporter 3 (rOAT3) is responsible for brain-to-blood efflux of homovanillic acid at the abluminal membrane of brain capillary endothelial cells” (J Cereb Blood Flow Metab, 2003) one finds activity and Km data, which are given here for nine molecules.

For data set [1], the target named is T1, Organic anion transporter 3 (OAT3) (Rattus norvegicus, UniProt Q9R1U7).
T1 sequence (Q9R1U7 whole entry): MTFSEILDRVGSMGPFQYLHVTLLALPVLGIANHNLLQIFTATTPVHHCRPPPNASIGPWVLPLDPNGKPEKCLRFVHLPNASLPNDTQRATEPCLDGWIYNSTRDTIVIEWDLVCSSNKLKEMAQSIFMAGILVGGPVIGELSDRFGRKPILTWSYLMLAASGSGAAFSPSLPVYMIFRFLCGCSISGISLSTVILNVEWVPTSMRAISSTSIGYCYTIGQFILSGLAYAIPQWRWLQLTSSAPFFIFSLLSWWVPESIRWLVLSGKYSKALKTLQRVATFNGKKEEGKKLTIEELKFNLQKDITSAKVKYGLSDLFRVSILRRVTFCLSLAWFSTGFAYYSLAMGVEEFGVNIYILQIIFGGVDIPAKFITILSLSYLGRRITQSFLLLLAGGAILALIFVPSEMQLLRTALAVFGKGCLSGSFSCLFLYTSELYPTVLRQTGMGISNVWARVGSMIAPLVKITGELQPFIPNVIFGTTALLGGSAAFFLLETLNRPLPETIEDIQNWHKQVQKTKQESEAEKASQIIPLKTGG
The data set can be described thus: TP_TRANSPORTER: inhibition of Homovanillic acid uptake (HVA: 0.2 uM, PCG: 1000 uM) in Xenopus laevis oocytes. Format: functional, cell-based, Oocyte. Also on record: scale not given: the % may be the effect or the level left. To be noted: Xenopus laevis oocytes (Organic anion transporter 3), probe Homovanillic acid (HVA), read-out: Activity.

For data set [2], the target named is T1, Organic anion transporter 3 (OAT3). The data set can be described thus: TP_TRANSPORTER: inhibition of Homovanillic acid uptake (HVA: 0.2 uM, Indomethacin: 1000 uM) in Xenopus laevis oocytes. Particulars: Xenopus laevis oocytes (Organic anion transporter 3), probe Homovanillic acid (HVA), read-out: Activity. Format: functional, cell-based, Oocyte. Also on record: scale not given: the % may be the effect or the level left.

Data set [3] shares this target. The data set can be described thus: TP_TRANSPORTER: inhibition of Homovanillic acid uptake (HVA: 0.2 uM, 6-mercaptopurine: 1000 uM) in Xenopus laevis oocytes. Format: functional, cell-based, Oocyte. More on the design: scale not given: the % may be the effect or the level left. To be noted: Xenopus laevis oocytes (Organic anion transporter 3), probe Homovanillic acid (HVA), read-out: Activity.

For data set [4] the target is unchanged. The data set can be described thus: TP_TRANSPORTER: inhibition of Homovanillic acid uptake (HVA: 0.2 uM, Baclofen: 1000 uM) in Xenopus laevis oocytes. Also on record: scale not given: the % may be the effect or the level left. Particulars: Xenopus laevis oocytes (Organic anion transporter 3), probe Homovanillic acid (HVA), read-out: Activity. Format: functional, cell-based, Oocyte.

For data set [5] the target is unchanged. The data set can be described thus: TP_TRANSPORTER: inhibition of Homovanillic acid uptake (HVA: 0.2 uM, Probenecid: 1000 uM) in Xenopus laevis oocytes. Format: functional, cell-based, Oocyte. Also on record: scale not given: the % may be the effect or the level left. To be noted: Xenopus laevis oocytes (Organic anion transporter 3), probe Homovanillic acid (HVA), read-out: Activity.

The target is the same in data set [6]. The data set can be described thus: TP_TRANSPORTER: inhibition of Homovanillic acid uptake (HVA: 0.2 uM, PAH: 1000 uM) in Xenopus laevis oocytes. Format: functional, cell-based, Oocyte. More on the design: scale not given: the % may be the effect or the level left. To be noted: Xenopus laevis oocytes (Organic anion transporter 3), probe Homovanillic acid (HVA), read-out: Activity.

Data set [7] shares this target. The data set can be described thus: in vitro. Particulars: xenopus laevis, Xenopus laevis oocytes (Organic anion transporter 3), probe Homovanillic acid (HVA), 0.2 uM.
Data set [8] shares this target. The data set can be described thus: TP_TRANSPORTER: inhibition of Homovanillic acid uptake (HVA: 0.2 uM, E1S; 1000 uM) in Xenopus laevis oocytes. To be noted: Xenopus laevis oocytes (Organic anion transporter 3), probe Homovanillic acid (HVA), read-out: Activity. Format: functional, cell-based, Oocyte. Also on record: scale not given: the % may be the effect or the level left.

Substrate in data set [9]: COc1cc(CC(=O)O)ccc1O
The data set can be described thus: TP_TRANSPORTER: uptake in Xenopus laevis oocytes. Format: functional, cell-based, Oocyte.

The term Km denotes the concentration of substrate that gives half-maximal velocity.

For the molecule `CC1(C)S[C@@H]2[C@H](NC(=O)Cc3ccccc3)C(=O)N2[C@H]1C(=O)O` [PENICILLIN G], the activity at 1000 µM in data set [1] came to 1.01%.
With `COc1ccc2c(c1)c(CC(=O)O)c(C)n2C(=O)c1ccc(Cl)cc1` [INDOMETHACIN], the activity at 1000 µM in data set [2] is 40.9%.
In the case of `Sc1ncnc2nc[nH]c12` [MERCAPTOPURINE ANHYDROUS], the activity at 1000 µM in [3] is 8.67%.
Turning to `NCC(CC(=O)O)c1ccc(Cl)cc1` (centres undefined) [BACLOFEN], the activity at 1000 µM in [4] amounted to 23.2%.
On to `CCCN(CCC)S(=O)(=O)c1ccc(C(=O)O)cc1` [PROBENECID], for which the activity at 1000 µM in data set [5] worked out at 23.4%.
`Nc1ccc(C(=O)NCC(=O)O)cc1` [AMINOHIPPURIC ACID]: the activity at 1000 µM in data set [6] stood at 20.3%.
In turn, `CN/C(=N/CCSCc1nc[nH]c1C)NC#N` [CIMETIDINE] displayed an activity at 1000 µM in data set [7] of 24.5%.
In the case of `C[C@]12CC[C@@H]3c4ccc(OS(=O)(=O)O)cc4CC[C@H]3[C@@H]1CCC2=O` [ESTRONE SULFURIC ACID], the activity at 1000 µM in [8] turned out to be 4.35%.

B1: Organic anion transporter 3 (Rattus norvegicus) (protein)
chain: MTFSEILDRVGSMGPFQYLHVTLLALPVLGIANHNLLQIFTATTPVHHCRPPPNASIGPWVLPLDPNGKPEKCLRFVHLPNASLPNDTQRATEPCLDGWIYNSTRDTIVIEWDLVCSSNKLKEMAQSIFMAGILVGGPVIGELSDRFGRKPILTWSYLMLAASGSGAAFSPSLPVYMIFRFLCGCSISGISLSTVILNVEWVPTSMRAISSTSIGYCYTIGQFILSGLAYAIPQWRWLQLTSSAPFFIFSLLSWWVPESIRWLVLSGKYSKALKTLQRVATFNGKKEEGKKLTIEELKFNLQKDITSAKVKYGLSDLFRVSILRRVTFCLSLAWFSTGFAYYSLAMGVEEFGVNIYILQIIFGGVDIPAKFITILSLSYLGRRITQSFLLLLAGGAILALIFVPSEMQLLRTALAVFGKGCLSGSFSCLFLYTSELYPTVLRQTGMGISNVWARVGSMIAPLVKITGELQPFIPNVIFGTTALLGGSAAFFLLETLNRPLPETIEDIQNWHKQVQKTKQESEAEKASQIIPLKTGG
Consider B1, for which the Km in [9] is 274 µM.
